# Values joined by “and” are separate entries in the source; they are usually repeats but may differ in a detail not shown here. Identical values can stand only once.
# Key:
# WT ZAC = target: T1, WT ZAC (Homo sapiens, UniProt Q401N2, A152T); assay: TEVC in Xenopus oocytes expressing WT ZAC; format: cell-based
# T1 construct: expressed in transfected cells; host or cells: Xenopus oocytes injected with cRNA (pUNIV vector)
# T1 sequence (Q401N2 26-412 A152T): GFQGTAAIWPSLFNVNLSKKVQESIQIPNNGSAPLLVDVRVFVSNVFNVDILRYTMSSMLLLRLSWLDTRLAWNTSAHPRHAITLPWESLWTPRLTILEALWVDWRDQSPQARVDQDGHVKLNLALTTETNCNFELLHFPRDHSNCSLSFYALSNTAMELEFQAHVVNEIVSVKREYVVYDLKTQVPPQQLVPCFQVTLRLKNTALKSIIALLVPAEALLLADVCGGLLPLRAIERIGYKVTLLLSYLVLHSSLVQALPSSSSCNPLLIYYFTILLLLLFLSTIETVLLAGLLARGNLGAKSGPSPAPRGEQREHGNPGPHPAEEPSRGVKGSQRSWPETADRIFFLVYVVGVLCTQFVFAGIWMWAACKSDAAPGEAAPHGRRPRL
# Description: (§1) The recordings were performed at room temperature.
# (§2) Analysis of the data from the TEVC recordings were performed using Clampfit software version 10.5 (Molecular Devices, Crawley, UK) and GraphPad Prism version 7.0c (GraphPad Software, La Jolla, CA). Unless otherwise stated, the inward currents induced by agonists in oocytes were normalized to the maximal response elicited by a specific agonist (agonist Imax) on each oocyte. Concentration-response and concentration-inhibition curves were fitted in GraphPad Prism by nonlinear regression using the equation for sigmoidal dose-response with variable slope. Each data point represents the mean ± S.E.M. value of recordings performed on at least five oocytes in total from at least two different batches. For the data where statistical analysis was performed, a one-way ANOVA was used. The null hypothesis was rejected at P < 0.05, and the differences between the means were analyzed by Tukey’s multiple comparisons test.
# ZAC/hα1-Gly = assay: TEVC in oocytes expressing ZAC/hα1-Gly chimera; format: cell-based, human
# Description: as §1, §2
# (§3) Initially, we constructed four chimeric subunits fusing the ZAC ECD or TMD-ICD with the complementary domains from either the m5-HT3A or the hα1 GlyR subunit: ZAC/m5-HT3A, m5-HT3A/ZAC, ZAC/hα1-Gly and hα1-Gly/ZAC (Fig. 1A). […] (Fig. 1A).
# ZAC/m5-HT3A = assay: TEVC in oocytes expressing ZAC/m5-HT3A chimera; format: cell-based, mouse/human; conditions: 10 mM Zn^2+; n = 5
# Description: as §1, §2, §3
# ZAC^D116A/DH8A/H210A = target: T2, ZAC^D116A/DH8A/H210A (Homo sapiens, UniProt Q401N2, A152T/D140A/D142A/H144A); assay: TEVC in oocytes, Cluster 1 triple mutant; format: cell-based; conditions: 10 mM Zn^2+
# T2 construct: expressed in transfected cells; host or cells: Xenopus oocytes injected with cRNA (pUNIV vector)
# Description: as §1
# as §2, with “For the data where statistical analysis was performed, a one-way ANOVA was used.” left out
# (§4) The putative involvement of candidate residues in Clusters 1, 2, 3 and 4 in Zn^2+ binding to ZAC was investigated in by an elaborate alanine mutagenesis scanning. […] The determined IpH 4.0 value was used in part as a control and in part to enable the distinction of ZAC mutants non-responsive to Zn^2+ due to elimination of their ability to bind the metal ion from those where the mutation had eliminated cell surface expression and/or disrupted overall functionality of the receptor complex. […]
# ZAC^H210A = target: T3, ZAC^H210A (Homo sapiens, UniProt Q401N2, A152T/H144A); assay: TEVC in oocytes, His120 Ala mutant; format: cell-based; conditions: 10 mM Zn^2+
# T3 construct: expressed in transfected cells; host or cells: Xenopus oocytes injected with cRNA (pUNIV vector)
# Description: as §1
# as §2, with “For the data where statistical analysis was performed, a one-way ANOVA was used.” left out
# as §4
# ZAC^H120L = assay: TEVC in oocytes, ZAC H120L mutant; format: cell-based, human; conditions: agonist
# Description: as §1
# as §2, with “For the data where statistical analysis was performed, a one-way ANOVA was used.” left out
# as §4
# ZAC^H79A = assay: TEVC in oocytes, ZAC H79A mutant; format: cell-based, human; conditions: agonist; parallel recordings
# Description: as §1
# as §2, with “For the data where statistical analysis was performed, a one-way ANOVA was used.” left out
# as §4
# ZAC^H82A = target: T4, ZAC^H82A (Homo sapiens, UniProt Q401N2, A152T/H106A); assay: TEVC in oocytes, ZAC H82A mutant; format: cell-based
# T4 construct: expressed in transfected cells; host or cells: Xenopus oocytes injected with cRNA (pUNIV vector)
# Description: as §1
# as §2, with “For the data where statistical analysis was performed, a one-way ANOVA was used.” left out
# as §4
# ZAC^H139A = target: T5, ZAC^H139A (Homo sapiens, UniProt Q401N2, A152T/H163A); assay: TEVC in oocytes, ZAC H139A mutant; format: cell-based
# T5 construct: expressed in transfected cells; host or cells: Xenopus oocytes injected with cRNA (pUNIV vector)
# Description: as §1
# as §2, with “For the data where statistical analysis was performed, a one-way ANOVA was used.” left out
# as §4
# ZAC^H144A = target: T6, ZAC^H144A (Homo sapiens, UniProt Q401N2, A152T/H168A); assay: TEVC in oocytes, ZAC H144A mutant; format: cell-based
# T6 construct: expressed in transfected cells; host or cells: Xenopus oocytes injected with cRNA (pUNIV vector)
# Description: as §1
# as §2, with “For the data where statistical analysis was performed, a one-way ANOVA was used.” left out
# as §4
# [1] = target: T7, ZAC^E24A/E89A/D105A/D108A/E130A (Homo sapiens, UniProt Q401N2, A152T/D129A/D132A/E113A/E154A/E48A); assay: TEVC in oocytes, Cluster 3 quintuple mutant; format: cell-based; conditions: H^+ pH 4.0; Zn^2+ 10 mM; data not shown
# T7 construct: expressed in transfected cells; host or cells: Xenopus oocytes injected with cRNA (pUNIV vector)
# Description: as §1
# as §2, with “For the data where statistical analysis was performed, a one-way ANOVA was used.” left out
# as §4
# ZAC^E89A = target: T8, ZAC^E89A (Homo sapiens, UniProt Q401N2, A152T/E113A); assay: TEVC in oocytes, ZAC E89A mutant; format: cell-based; conditions: agonist; n = 7
# T8 construct: expressed in transfected cells; host or cells: Xenopus oocytes injected with cRNA (pUNIV vector)
# Description: as §1
# as §2, with “For the data where statistical analysis was performed, a one-way ANOVA was used.” left out
# as §4
# ZAC^E160A/E162A/C195A = target: T9, ZAC^E160A/E162A/C195A (Homo sapiens, UniProt Q401N2, A152T/C219A/E184A/E186A); assay: TEVC in oocytes, Cluster 4 triple mutant; format: cell-based; conditions: agonist; n = 6
# T9 construct: expressed in transfected cells; host or cells: Xenopus oocytes injected with cRNA (pUNIV vector)
# Description: as §1
# as §2, with “For the data where statistical analysis was performed, a one-way ANOVA was used.” left out
# as §4
# ZAC^H82A/H120F = target: T10, ZAC^H82A/H120F (Homo sapiens, UniProt Q401N2, A152T/H106A/H144F); assay: TEVC in oocytes, ZAC H82A/H120F mutant; format: cell-based; conditions: parallel recordings, same oocyte batches
# T10 construct: expressed in transfected cells; host or cells: Xenopus oocytes (cRNA injection, pUNIV vector)
# Description: as §1
# as §2, with “For the data where statistical analysis was performed, a one-way ANOVA was used.” left out
# as §4
# ZAC^H79A/H82A/H120F = target: T11, ZAC^H79A/H82A/H120F (Homo sapiens, UniProt Q401N2, A152T/H103A/H106A/H144F); assay: TEVC in oocytes, ZAC H79A/H82A/H120F mutant; format: cell-based; conditions: parallel recordings, same oocyte batches
# T11 construct: expressed in transfected cells; host or cells: Xenopus oocytes (cRNA injection, pUNIV vector)
# Description: as §1
# as §2, with “For the data where statistical analysis was performed, a one-way ANOVA was used.” left out
# as §4
# ZAC^D108A = target: T12, ZAC^D108A (Homo sapiens, UniProt Q401N2, A152T/D132A); assay: TEVC in oocytes, ZAC D108A mutant; format: cell-based
# T12 construct: expressed in transfected cells; host or cells: Xenopus oocytes (cRNA injection, pUNIV vector)
# Description: as §1
# as §2, with “For the data where statistical analysis was performed, a one-way ANOVA was used.” left out
# as §4
# ZAC^E130A = target: T13, ZAC^E130A (Homo sapiens, UniProt Q401N2, A152T/E154A); assay: TEVC in oocytes, ZAC E130A mutant; format: cell-based
# T13 construct: expressed in transfected cells; host or cells: Xenopus oocytes (cRNA injection, pUNIV vector)
# Description: as §1
# as §2, with “For the data where statistical analysis was performed, a one-way ANOVA was used.” left out
# as §4
# [2] = agonist, oocytes of the Cluster 3 recordings, n = 12
# [3] = agonist, parallel recordings with Cluster 4 mutant, n = 5
# [4] = agonist, section 3.1 recordings, n = 8
# [5] = sustained (4 min) application of 10 mM Zn^2+
# [6] = sustained (4 min) application of 30 μM Zn^2+
# T8 sequence (Q401N2 26-412 E113A/A152T): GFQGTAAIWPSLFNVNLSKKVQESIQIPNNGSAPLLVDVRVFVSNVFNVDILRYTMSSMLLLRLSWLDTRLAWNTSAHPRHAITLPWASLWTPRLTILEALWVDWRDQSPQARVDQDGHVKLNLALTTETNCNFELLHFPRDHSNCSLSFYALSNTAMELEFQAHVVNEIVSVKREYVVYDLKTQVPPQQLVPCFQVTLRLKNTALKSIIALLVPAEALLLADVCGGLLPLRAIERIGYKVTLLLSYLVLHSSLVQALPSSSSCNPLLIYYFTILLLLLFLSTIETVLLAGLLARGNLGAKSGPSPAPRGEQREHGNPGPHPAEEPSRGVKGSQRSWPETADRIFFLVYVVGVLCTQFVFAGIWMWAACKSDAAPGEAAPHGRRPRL
# T9 sequence (Q401N2 26-412 A152T/E184A/E186A/C219A): as the sequence (Q401N2 26-412 E113A/A152T) above, with A88E, E159A, E161A, C194A counted along it
# T10 sequence (Q401N2 26-412 H106A/H144F/A152T): as the sequence (Q401N2 26-412 E113A/A152T) above, with H81A, A88E, H119F counted along it
# T11 sequence (Q401N2 26-412 H103A/H106A/H144F/A152T): as the sequence (Q401N2 26-412 E113A/A152T) above, with H78A, H81A, A88E, H119F counted along it
# T3 sequence (Q401N2 26-412 H144A/A152T): as the sequence (Q401N2 26-412 E113A/A152T) above, with A88E, H119A counted along it
# T6 sequence (Q401N2 26-412 A152T/H168A): as the sequence (Q401N2 26-412 E113A/A152T) above, with A88E, H143A counted along it
# T4 sequence (Q401N2 26-412 H106A/A152T): as the sequence (Q401N2 26-412 E113A/A152T) above, with H81A, A88E counted along it
# T2 sequence (Q401N2 26-412 D140A/D142A/H144A/A152T): as the sequence (Q401N2 26-412 E113A/A152T) above, with A88E, D115A, D117A, H119A counted along it
# T5 sequence (Q401N2 26-412 A152T/H163A): as the sequence (Q401N2 26-412 E113A/A152T) above, with A88E, H138A counted along it
# T12 sequence (Q401N2 26-412 D132A/A152T): as the sequence (Q401N2 26-412 E113A/A152T) above, with A88E, D107A counted along it
# T7 sequence (Q401N2 26-412 E48A/E113A/D129A/D132A/A152T/E154A): as the sequence (Q401N2 26-412 E113A/A152T) above, with E23A, D104A, D107A, E129A counted along it
# T13 sequence (Q401N2 26-412 A152T/E154A): as the sequence (Q401N2 26-412 E113A/A152T) above, with A88E, E129A counted along it
smiles,measurement,setting,value
"[Cl-].[Cl-].[Zn+2] [Zn^2+, ZnCl2]",Imax (current amplitude evoked by saturating agonist),"WT ZAC; 10 mM Zn^2+, mean ± S.E.M., n = 19",0.58 ± 0.10 μA
same,EC50,"WT ZAC; agonist, a couple of oocyte batches with 5–10-fold higher potency (Cluster 1 double/triple mutant experiments)",~100 µM
same,nH ± S.E.M. (Hill slope),"WT ZAC; agonist, n = 8",1.5 ± 0.2
same,EC50,"WT ZAC; agonist, normal potency in the vast majority of oocyte batches in this work and in two other studies",500 to 1000 µM
same,EC50,WT ZAC; [2],98 µM
same,pEC50 ± S.E.M.,WT ZAC; [2],4.01 ± 0.03
same,EC50,WT ZAC; [3],310 µM
same,pEC50 ± S.E.M.,WT ZAC; [3],3.51 ± 0.05
same,EC50,WT ZAC; [4],500 µM
same,pEC50 ± S.E.M.,WT ZAC; [4],3.30 ± 0.04
same,"Iresidual, 4 min",WT ZAC; [5],21 % of Ipeak and 21 ± 3 % of Ipeak
same,Δtstart-to-peak,WT ZAC; [5],4.8 ± 0.5 s
same,Imax (current amplitude evoked by saturating agonist),"ZAC/hα1-Gly; 30 μM Zn^2+, n = 11",0.24 ± 0.03 μA
same,nH ± S.E.M. (Hill slope),"ZAC/hα1-Gly; agonist, n = 10",1.6 ± 0.4
same,pEC50 ± S.E.M.,"ZAC/hα1-Gly; agonist, n = 10",5.36 ± 0.09
same,left-shift of concentration-response relationship (higher agonist potency),ZAC/hα1-Gly; compared to WT ZAC,~100 fold
same,"Iresidual, 4 min",ZAC/hα1-Gly; [6],63 ± 6 % of Ipeak
same,Δtpeak-to-plateau,ZAC/hα1-Gly; [6],56 ± 3.8 s
same,Δtstart-to-peak,ZAC/hα1-Gly; [6],10 ± 1.9 s
same,I10 mM Zn2+ ± S.E.M.,ZAC/m5-HT3A,−0.0038 ± 0.0009 μA
same,I10 mM Zn2+ range,ZAC^D116A/DH8A/H210A,10–30 nA
same,I10 mM Zn2+,ZAC^H210A,5–30 nA
same,fitted EC50 relative to WT ZAC (higher),ZAC^H120L,~ 3 fold
same,fitted EC50 relative to WT ZAC (higher),ZAC^H79A,2.4 fold
same,agonist properties compared to WT ZAC,ZAC^H82A,WT-like agonist properties
same,functional properties as agonist compared to WT ZAC,ZAC^H139A,not altered significantly
same,functional properties as agonist compared to WT ZAC,ZAC^H144A,not altered significantly
same,agonist responsiveness,[1],non-responsive
same,EC50,ZAC^E89A,160 µM
same,pEC50 ± S.E.M.,ZAC^E89A,3.79 ± 0.07
same,EC50,ZAC^E160A/E162A/C195A,180 µM
same,pEC50 ± S.E.M.,ZAC^E160A/E162A/C195A,3.75 ± 0.05
same,ability to elicit ZAC signalling compared to WT ZAC,ZAC^H82A/H120F,did not appear to impair
same,ability to elicit ZAC signalling compared to WT ZAC,ZAC^H79A/H82A/H120F,did not appear to impair
same,concentration-response relationship compared to WT ZAC,ZAC^D108A,did not differ significantly
same,concentration-response relationship compared to WT ZAC,ZAC^E130A,did not differ significantly
